From a melting point compilation (Tetko et al.; mined from patent text by program, amines drawn as free bases though some values may be those of a salt)

Row | SMILES | melting point [°C]
1 | CCCCNc1cc(Cl)c2c(c1)C(c1ccccc1F)=NC(C)(C)C(=O)N2C | 113 to 115
2 | CCCCN(CCCC)CCCOc1ccc(S(=O)(=O)c2c(C3CCCCC3)cn3ccccc23)cc1 | 130 to 131
3 | Cc1c(Cl)ccc([N+](=O)[O-])c1N | 164 to 165
4 | CC(C)c1ccc(S(=O)(=O)n2c(COC(C)(C)C(=O)O)cc3cc(Cl)ccc32)cc1 | 60
5 | NS(=O)(=O)c1ccc(CCN2CC=C(c3c[nH]c(-c4ccc(F)cc4)c3-c3ccncc3)CC2)cc1 | 220 to 221
6 | CCOCn1cc(C(C)=O)c2c(OC)cc(Br)nc21 | 114 to 116
7 | CN1OCCN(c2ccc(Cl)c(C(F)(F)F)c2)C1=O | 72 to 73
8 | CCCc1cc(=O)oc2c(C(=O)CC)c(O)cc(O)c12 | 244 to 246
9 | N#CC1(c2ccc(OC(F)F)c(OCC3CC3)c2)CCC(=C2SCCCS2)CC1 (centres undefined) | 84 to 85
10 | CC(=O)Nc1ccc(I)cc1C | 182 to 183
11 | O=C(O)CCn1c(=O)n(CCN2CCN(c3ccc(F)cc3)CC2)c(=O)c2cscc21 | 202 to 203
12 | C[Si](C)(C)c1cccc(I)c1C(=O)NC1CC1 | 162 to 164
13 | CCCCC(=O)Nc1c(C(=O)OC)cccc1[N+](=O)[O-] | 61 to 62
14 | C[C@H]1CC[C@H](Nc2nccc(-n3ncc4c([N+](=O)[O-])cccc43)n2)CC1 | 254 to 255
15 | Cc1ccc(-c2cc(O)c3[nH]c(=O)ccc3c2)c(C)n1 | 276 to 277
16 | OCc1c(Cl)cc(Cl)cc1Cl | 100 to 101
17 | O=C(Nc1nnn[nH]1)c1cnc2sc3ccc(F)cc3n2c1=O | > 300
18 | CC1(c2ccc(CNC(=O)CCl)cc2)Cc2cc(OCC(=O)O)c(Cl)c(Cl)c2C1=O (centres undefined) | 138 to 141
19 | NC(=O)Cc1c(-c2ccccc2)nn2cccnc12 | 217 to 219
20 | CNC(=O)Cc1ccc(CC(=O)O)cc1 | 102 to 104
21 | COc1ccc(C(=O)C(NC(=O)CCCCCBr)c2ccc(OC)cc2)cc1 (centres undefined) | 93
22 | CC(=O)OCCn1nc(-c2cc(C(C)(C)C)cc(C(C)(C)C)c2)c2cccnc21 | 115 to 116
23 | CN1CC(CCN2CCN(c3ccc(F)cc3)CC2)OC1=O (centres undefined) | 82 to 84
24 | O=C(NC1CCCCC1)ON1C(=O)CCC1=O | 158 to 160
25 | OCCC1CCc2cc(OCc3ccc(-c4ccccc4)cc3)ccc2C1 (centres undefined) | 101 to 102

Row | SMILES | melting point [°C]
26 | CN(c1cccc2cc(-c3ncc(CN4CCOCC4)s3)[nH]c12)S(=O)(=O)c1cccs1 | 181 to 182
27 | CC(C)(C)OC(=O)NCCC(=O)NCC(C(=O)OCc1ccccc1)c1ccccc1 (centres undefined) | 84.5 to 86
28 | COc1ccc(C=CC(=O)N2CCOCC2)cc1C(F)F | 119
29 | COc1ccc(C2=NN(C(C)CCC(=O)Nc3ccc(C4=NNC(=O)CC4C)cc3)C(=O)C3CC=CCC23)cc1OC (centres undefined) | 154 to 157
30 | COC(=O)c1nnn(Cc2ccccc2F)c1C(=O)OC | 203 to 205
31 | O=C1CCOc2ccc([N+](=O)[O-])cc21 | 171 to 173
32 | CC(=Cc1ccc(Oc2ccc(Cl)cc2)cc1)[N+](=O)[O-] | 69 to 71
33 | COc1cc2c(cc1OC)OCC(C(=O)O)=C2 | 225 to 228
34 | COc1cc(C(C)C)c2c(c1)S(=O)(=O)N(COc1cc(C(F)(F)F)nn1Cc1ccccc1)C2=O | 116 to 118
35 | CC(C)(C)OC(=O)NOCCC(=O)Oc1c(F)c(F)c(F)c(F)c1F | 58 to 59
36 | COc1cccc(C(=O)O)c1OCc1nc(-c2ccco2)oc1C | 198 to 199
37 | CCc1cc(C=C(C#N)C#N)ccc1N=C1SCC2(CCCC2)N1C1CCCC1 | 135 to 136
38 | CCOC(=O)/C(=N\OCc1ccccc1)c1csc(N)n1 | 133 to 134
39 | CCc1cc(=O)c2nc(Cl)ccc2[nH]1 | 269 to 270
40 | O=[N+]([O-])c1ccc2oc(-c3ccco3)nc2c1 | 175 to 177
41 | CCCCCCCCCCCCCCOC(=O)CCCCc1cc(O)c(O)c([N+](=O)[O-])c1 | 46 to 47
42 | CC(C)c1cc2nc(N)[nH]c(=O)c2cc1-c1ccc(Cl)cc1 | 326 to 330
43 | CCOC(CNC(=S)Nc1ccccn1)OCC | 132 to 133
44 | Cc1nc2scc(C)n2c1S(N)(=O)=O | 177 to 178
45 | CC(=O)N1c2ccc(-c3ccc(C(=O)O)cc3)cc2C(Nc2ccccc2)CC1C (centres undefined) | 246
46 | CN1C(=O)c2cnc(-c3ccccc3)nc2N(C(=O)CCl)c2ccccc21 | 189 to 190
47 | Cc1c(C(=O)Nc2ccc(N3CCC(N4CCC(O)CC4)CC3)c(C#N)c2)cnn1-c1ccc(Cl)cc1 | 213
48 | Cc1cccc(COc2cccc(OCc3ccc4ccc(Cl)cc4n3)c2)c1C(=O)O | 188 to 193
49 | O=C(Nc1ccc(C(=O)N2Cc3cccnc3Oc3ccccc32)cn1)c1ccccc1-c1ccccc1 | 107 to 114
